From PubChem BioAssay (NCI) come the findings set out here.

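These data come from cells grown in 96-well plates and exposed to compound for 48 hours at five concentrations. The concentration for full growth arrest is given as TGI.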

Test systems include HOP-62 NSCLC; OVCAR-8 ovarian; CCRF-CEM leukemia; MDA-MB-231 breast; SNB-19 CNS; T-47D breast; BT-549 breast; COLO 205 colon; SF-295 CNS; 786-0 renal; M14 melanoma; MOLT-4 leukemia; RXF 393 renal; EKVX NSCLC; UO-31 renal; SF-539 CNS; HCC-2998 colon.
Holding throughout (experiment): NCI anticancer screen, dose series, 48 h

`CCSC1=N/C(=C\c2ccco2)C(NN)=N1`: the TGI with HOP-62 NSCLC, in the assay with OVCAR-8 ovarian, with CCRF-CEM leukemia, in the assay on MDA-MB-231 breast, with SNB-19 CNS and in the assay on T-47D breast was above 50 µM in each case. Further, the TGI in the assay on BT-549 breast, in the assay on COLO 205 colon, in the assay with SF-295 CNS, with 786-0 renal, in the assay with M14 melanoma and in the assay on MOLT-4 leukemia was above 50 µM throughout. Also, the TGI in the assay with RXF 393 renal, with EKVX NSCLC, with UO-31 renal and with SF-539 CNS was above 50 µM each time.
Turning to `C=C1[C@H](OC(=O)C(C)C)[C@@H](OC(C)=O)[C@@H](OC(C)=O)C(C)(C)[C@@H]2O[C@H]2[C@@H](C)C(=O)[C@@]2(OC(C)=O)C[C@@](C)(OC(C)=O)[C@H](OC(C)=O)[C@@H]2[C@H]1OC(C)=O`, the TGI in the assay with HOP-62 NSCLC, in the assay with OVCAR-8 ovarian, with CCRF-CEM leukemia, in the assay on MDA-MB-231 breast, in the assay with HCC-2998 colon and in the assay on SNB-19 CNS was above 100 µM throughout. In addition, the TGI in the assay with T-47D breast, in the assay with BT-549 breast, in the assay on COLO 205 colon, in the assay with SF-295 CNS, with 786-0 renal and with M14 melanoma was above 100 µM each time. For the same compound, the TGI with MOLT-4 leukemia, with EKVX NSCLC, in the assay on UO-31 renal and in the assay on SF-539 CNS was above 100 µM in each case.
For `C=CCc1c(C)nc(C)nc1N/N=C/C=C/c1ccccc1`, the TGI with HOP-62 NSCLC was 38.8 µM; with OVCAR-8 ovarian, 97.7 µM; in the assay with CCRF-CEM leukemia it was above 100 µM; in the assay on MDA-MB-231 breast, above 100 µM; in the assay on SNB-19 CNS it was above 100 µM; with T-47D breast, 28 µM. The TGI is 63.2 µM in the assay with BT-549 breast; above 100 µM in the assay with COLO 205 colon; 52.9 µM in the assay on SF-295 CNS; above 100 µM in the assay with 786-0 renal; above 100 µM in the assay with M14 melanoma; 54 µM with MOLT-4 leukemia. For the same compound, the TGI with RXF 393 renal was 47 µM; with EKVX NSCLC it was 69.2 µM; with UO-31 renal, above 100 µM; with SF-539 CNS it was above 100 µM.
For `Cc1[nH]n(C2=NCCN2)c(=O)c1C`, the TGI in the assay on HOP-62 NSCLC, with OVCAR-8 ovarian, in the assay with CCRF-CEM leukemia, in the assay on MDA-MB-231 breast, with SNB-19 CNS and with T-47D breast was above 100 µM throughout. The TGI with BT-549 breast, in the assay on COLO 205 colon, in the assay on SF-295 CNS, in the assay on 786-0 renal, in the assay on M14 melanoma and with MOLT-4 leukemia was above 100 µM throughout. Also, the TGI in the assay on RXF 393 renal, in the assay on EKVX NSCLC, with UO-31 renal and in the assay on SF-539 CNS was above 100 µM throughout.
As to `C=CCOc1ccc(/C(N=Nc2ccc(C)cc2)=N/NC(=O)c2ccccc2)cc1OC`, the TGI with HOP-62 NSCLC is above 100 µM; in the assay on OVCAR-8 ovarian it was 91.4 µM; with CCRF-CEM leukemia it was 41.1 µM; with MDA-MB-231 breast, above 100 µM; in the assay with HCC-2998 colon it was 76.5 µM; in the assay on SNB-19 CNS it was above 100 µM. Moreover, the TGI with T-47D breast was 45.3 µM; in the assay with BT-549 breast it was 47.1 µM; in the assay on COLO 205 colon, 66.1 µM; in the assay with SF-295 CNS, above 100 µM; in the assay with 786-0 renal it was above 100 µM; in the assay on M14 melanoma it was 58.3 µM. Also, the TGI in the assay on MOLT-4 leukemia is above 100 µM; with EKVX NSCLC, above 100 µM; with UO-31 renal, 73.4 µM.
As for `CC1=CC=C2c3ccccc3C=CN2C(=O)C1`, the TGI in the assay with HOP-62 NSCLC, in the assay on OVCAR-8 ovarian, with CCRF-CEM leukemia, with MDA-MB-231 breast, in the assay with HCC-2998 colon and with SNB-19 CNS was above 100 µM throughout. For the same compound, the TGI is above 100 µM in the assay on T-47D breast; 56.3 µM in the assay with BT-549 breast; above 100 µM in the assay with COLO 205 colon; above 100 µM in the assay with SF-295 CNS; above 100 µM with 786-0 renal; above 100 µM in the assay with M14 melanoma. In addition, the TGI with MOLT-4 leukemia, with EKVX NSCLC, with UO-31 renal and with SF-539 CNS was above 100 µM in each case.
Take `COc1ccc(/C=N/n2c(=O)[nH]c3ccccc3c2=O)cc1`: the TGI in the assay with HOP-62 NSCLC, in the assay on OVCAR-8 ovarian, with CCRF-CEM leukemia, in the assay on MDA-MB-231 breast, in the assay with SNB-19 CNS and in the assay with T-47D breast was above 100 µM in each case. Besides, the TGI with BT-549 breast, in the assay on COLO 205 colon, with SF-295 CNS, in the assay with 786-0 renal, in the assay with M14 melanoma and in the assay on MOLT-4 leukemia was above 100 µM each time. The TGI in the assay on EKVX NSCLC, in the assay on UO-31 renal and in the assay on SF-539 CNS was above 100 µM each time.
Turning to `Cc1n[n+](CC(=O)c2ccccc2)c2sc(N)nn12`, the TGI in the assay with HOP-62 NSCLC, in the assay on OVCAR-8 ovarian, in the assay with CCRF-CEM leukemia, with MDA-MB-231 breast, in the assay on SNB-19 CNS and with T-47D breast was above 100 µM throughout. For the same compound, the TGI with BT-549 breast, in the assay with COLO 205 colon, in the assay on SF-295 CNS, with 786-0 renal, with M14 melanoma and in the assay on MOLT-4 leukemia was above 100 µM each time. Moreover, the TGI in the assay with RXF 393 renal, with EKVX NSCLC and in the assay with UO-31 renal was above 100 µM each time.
